US20260176289A1, “SMALL MOLECULE INHIBITORS OF KRAS PROTEINS” (Merck Sharp & Dohme LLC, priority 2022, published 2026)

What was measured:
SW620 cells = experiment: Cellular phospho-ERK assay, SW620 cells (homozygous KRAS-G12V); format: cell-based; conditions: Homo sapiens, SW-620, KRAS-G12V, 2 hours, read-out: SW620 pERK IC50
Summary of the method: (§1)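 ERK phosphorylation relative to total ERK is the endpoint, detected by AlphaScreen-based SureFire multiplex following a 2-hour treatment at 37 °C. Compounds are titrated 1:3 over ten points from 30 μM.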

KRAS-G12V = KRAS-G12V (Homo sapiens, UniProt P01116, G12V); experiment: SOS-catalyzed nucleotide exchange assay (Procedure A, TR-FRET), KRAS-G12V; format: biochemical; conditions: nucleotide exchange, read-out: KRAS G12V GNE IC50
Chain of KRAS-G12V (P01116 with tags, fused parts or gaps isoform P01116-2 G12V): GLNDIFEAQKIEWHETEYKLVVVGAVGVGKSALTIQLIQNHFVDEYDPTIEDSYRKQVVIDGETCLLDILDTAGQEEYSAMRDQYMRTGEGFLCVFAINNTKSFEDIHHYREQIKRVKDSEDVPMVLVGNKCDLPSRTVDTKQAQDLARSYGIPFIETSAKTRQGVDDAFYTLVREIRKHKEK
Summary of the method: (§2)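 Signal ratio (520/495 nm, excitation 340 nm) reports Bodipy-GDP retention on biotinylated RAS after SOS-catalyzed exchange with 3 mM GTP. SOS was 40 nM, except 160 nM for G12V. Room-temperature exchange lasted 60 min (90 min for G12V), following a 60 min compound preincubation.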

KRAS-G12D = KRAS-G12D (Homo sapiens, UniProt P01116, G12D); experiment: SOS-catalyzed nucleotide exchange assay (Procedure A, TR-FRET), KRAS-G12D; format: biochemical; conditions: nucleotide exchange, read-out: KRAS G12D GNE IC50
Chain of KRAS-G12D (P01116 with tags, fused parts or gaps isoform P01116-2 G12D): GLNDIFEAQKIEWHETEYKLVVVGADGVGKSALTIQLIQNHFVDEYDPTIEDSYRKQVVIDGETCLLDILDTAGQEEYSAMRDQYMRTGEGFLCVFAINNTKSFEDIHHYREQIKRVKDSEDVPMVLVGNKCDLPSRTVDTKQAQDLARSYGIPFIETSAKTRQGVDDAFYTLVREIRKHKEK
Summary of the method: as §2

MKN-1 cells = experiment: Cellular phospho-ERK assay, MKN-1 cells (amplified wild-type KRAS); format: cell-based; conditions: Homo sapiens, amplified wild-type KRAS, 2 hours, read-out: MKN1 pERK IC50
Summary of the method: as §1

KRAS-WT = KRAS-WT (Homo sapiens, UniProt P01116); experiment: SOS-catalyzed nucleotide exchange assay (Procedure A, TR-FRET), KRAS-WT; format: biochemical; conditions: nucleotide exchange, read-out: KRAS WT GNE IC50
Chain of KRAS-WT (P01116 with tags, fused parts or gaps isoform P01116-2): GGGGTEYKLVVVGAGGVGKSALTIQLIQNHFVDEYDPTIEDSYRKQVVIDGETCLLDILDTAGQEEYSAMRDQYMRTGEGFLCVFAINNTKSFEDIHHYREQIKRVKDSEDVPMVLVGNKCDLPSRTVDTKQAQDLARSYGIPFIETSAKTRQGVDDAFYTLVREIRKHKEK
Summary of the method: as §2

KRAS-G13D = KRAS-G13D (Homo sapiens, UniProt P01116, G13D); experiment: SOS-catalyzed nucleotide exchange assay (Procedure A, TR-FRET), KRAS-G13D; format: biochemical; conditions: nucleotide exchange, Procedure A; read-out: KRAS G13D GNE IC50
Chain of KRAS-G13D (P01116 with tags, fused parts or gaps isoform P01116-2 G13D): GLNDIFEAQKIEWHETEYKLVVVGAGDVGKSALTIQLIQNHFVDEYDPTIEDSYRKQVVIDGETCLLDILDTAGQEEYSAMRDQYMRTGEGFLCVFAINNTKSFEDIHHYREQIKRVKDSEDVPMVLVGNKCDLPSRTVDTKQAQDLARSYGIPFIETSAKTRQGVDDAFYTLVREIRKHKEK

PANC08.13 cells = experiment: Cellular phospho-ERK assay, PANC08.13 cells (homozygous KRAS-G12D); format: cell-based; conditions: Homo sapiens, PANC-08-13, KRAS-G12D, 2 hours, read-out: PANC-08.13 pERK IC50
Description: Procedure for Cellular Phospho-ERK Assay in KRAS Wild Type and Mutant (G12D, G12V) Cell Lines
MKN-1 cells (JCRB JCRB0252) containing amplified wild-type KRAS, were cultured in growth medium that contains RPMI 1640-GlutaMAX™-I (ThermoFisher Scientific 61870) containing 10% heat inactivated fetal bovine serum (ThermoFisher Scientific 10091148), 1 mM sodium pyruvate and 10 mM HEPES. PANC08.13 cells (ATCC® CRL-2551™), containing homozygous KRAS-G12D activating mutation, were cultured in growth medium made of RPMI1640-GlutaMAX™-I (ThermoFisher Scientific 61870) containing 15% heat inactivated fetal bovine serum (ThermoFisher Scientific 10091148)). AsPC-1 cells (ATCC® CRL-1682™), containing homozygous KRAS-G12D activating mutation, were cultured in T150 flask in growth medium (RPMI medium 1640-GlutaMAX™-I (ThermoFisher Scientific 61870) containing 10% fetal bovine serum (ThermoFisher Scientific 10091148)). SW620 cells (ATCC® […]), containing homozygous KRAS-G12V activating mutation, were cultured in growth medium that contains RPMI 1640-GlutaMAX™-I (ThermoFisher Scientific 61870) containing 10% heat inactivated fetal bovine serum (ThermoFisher Scientific 10091148).
Cells for the assay were harvested in growth medium after TrypLE (ThermoFisher scientific 12604021) digestion and were seeded in a 384-well collagen coated cell culture plate (Corning 356702) at a density of 10,000-15,000 cells/20 μL/well, and incubated at 37° C., 5% CO2 overnight. The compound (with 10 mM stock concentration) dose-response titrations were prepared [30 μM final ERK detection assay concentration and 1:3 dilutions, 10-point dose response] and appropriate amounts (270 nL) of test compounds were dispensed in a 384-well intermediate plate using an Echo 550 liquid handler. 30 μL/well of RPMI medium 1640-GlutaMAX™—I was added to the intermediate plate and the contents of the intermediate plate (10 μL/well) were then transferred to the 384-well collagen coated cell culture plate, which was incubated at 37° C., 5% CO2 for 2 hours. After removal of medium from the collagen coated cell culture plate, cells were lysed in lysis buffer from Alpha SureFire® Ultra™ Multiplex p-ERK and total ERK assay kit (PerkinElmer MPSU-PTERK) containing Halt™ Protease and Phosphatase inhibitor cocktail (ThermoFisher Scientific 78446) at room temperature with constant shaking at 300 rpm for 30 minutes. The cell lysates were then transferred to an OptiPlate-384 plate (PerkinElmer 6005620), and the phosphorylation of ERK (p-ERK) and total ERK levels were detected by Alpha SureFire® Ultra™ Multiplex p-EEK kit and total ERK assay kit (PerkinElmer MPSU-PTERK) following the manufacturer's protocol. Assay plates were read on a En Vision Multimode Plate Reader (PerkinElmer), and the ratio of p-ERK vs. total ERK in each well was used as the final readout. Dose response curves were analyzed using a 4-parameter logistic model to calculate IC50 values using Spotfire software.

[1] = molecular target: KRAS-G12C (C51S/C80L/C118S) (Homo sapiens, UniProt P01116, C118S/C51S/C80L/G12C); experiment: SOS-catalyzed nucleotide exchange assay (Procedure A, TR-FRET), KRAS-G12C; format: biochemical; conditions: nucleotide exchange, Procedure A; read-out: KRAS G12C GNE IC50
Chain of KRAS-G12C (C51S/C80L/C118S) (P01116 with tags, fused parts or gaps isoform P01116-2 G12C/C51S/C80L/C118S): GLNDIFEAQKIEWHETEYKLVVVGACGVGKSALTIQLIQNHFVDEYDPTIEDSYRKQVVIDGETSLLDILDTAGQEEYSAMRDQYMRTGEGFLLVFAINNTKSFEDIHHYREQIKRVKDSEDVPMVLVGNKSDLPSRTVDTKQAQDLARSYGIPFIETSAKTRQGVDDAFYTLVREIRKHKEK
Summary of the method: as §2

AsPC-1 cells = experiment: Cellular phospho-ERK assay, AsPC-1 cells (homozygous KRAS-G12D); format: cell-based; conditions: Homo sapiens, ASPC1, 2 h, KRAS-G12D, 2 hours, read-out: AsPC1 pERK IC50
Summary of the method: as §1

IC50 (AsPC-1 cells) [nM] | SMILES | IC50 (SW620 cells) [nM] | IC50 (KRAS-G12V) [nM] | IC50 (KRAS-G12D) [nM] | IC50 (MKN-1 cells) [nM] | IC50 (KRAS-WT) [nM] | IC50 (KRAS-G13D) [nM] | IC50 (PANC08.13 cells) [nM] | IC50 [1] [nM]
– | C#Cc1cccc2cccc(-c3nccc4c3sc3nc(OC[C@@]56CCCN5C[C@H](F)C6)nc(N5CCOC[C@@](C)(O)C5)c34)c12 [Ex-127, (S)-4-(8-(8-ethynyl-naphthalen-1-yl)-2-(((2R,7aS)-2-fluoro-tetrahydro-1H-pyr-rolizin-7a(5H)-yl)-methoxy)pyrido[4′, 3′:4,5]thieno[2,3-d]pyrimidin-4-yl)-6-methyl-1,4-oxaze-pan-6-ol] | 483 | 121 | 103 | 510 | 233 | 287 | 351 | 91.7
1200 | Cn1c2nc(OC[C@@]34CCCN3C[C@H](F)C4)nc(N3CCOC[C@@](C)(O)C3)c2c2ccnc(-c3c(C(F)F)c(Cl)cc4[nH]ncc34)c21 (single isomer, unassigned) [Ex-11] | – | 125 | 84.2 | – | 158 | 105 | 240 | 41.1
– | Cc1cc2[nH]ncc2c(-c2nccc3c2sc2nc(OC[C@@]45CCCN4C[C@H](F)C5)nc(N4CCOC[C@@](C)(O)C4)c23)c1Cl [Ex-32, (6S)-4-(8-(5-chloro-6-methyl-1H-indazol-4-yl)-2-(((2R,7aS)-2-fluorotetrahydro-1H-pyrrolizin-7a(5H)-yl)methoxy)pyrido[4′,3′:4,5]thieno[2,3-d]pyrimidin-4-yl)-6-methyl-1,4-oxazepan-6-ol] | 222 | 212 | 101 | 274 | 202 | 111 | 174 | 91.7
667 | Cc1cc2[nH]ncc2c(-c2nccc3c2sc2nc(OC[C@@]45CCCN4C[C@H](F)C5)nc(N4CCC[C@@](C)(O)C4)c23)c1C(F)(F)F [Ex-128, (3R)-1-(2-(((2R, 7aS)-2-fluorotetra-hydro-1H-pyrrol-izin-7a(5H)-yl)meth-oxy)-8-(6-methyl-5-(trifluoromethyl)-1H-indazol-4-yl)-pyrido[4′,3′:4,5]thieno[2,3-d]pyr-imidin-4-yl)-3-methylpiperidin-3-ol] | – | 143 | 96.9 | 214 | 246 | 204 | 242 | 102
– | COc1cc2c3c(N4CCOC[C@@](C)(O)C4)nc(OC[C@@]45CCCN4C[C@H](F)C5)nc3n(C)c2c(-c2c(C(F)(F)F)c(C)cc3[nH]ncc23)n1 [Ex-26, (6S)-4-(2-(((2R,7aS)-2-fluorotetrahydro-1H-pyrrolizin-7a(5H)-yl)methoxy)-6-methoxy-9-methyl-8-(6-methyl-5-(trifluoromethyl)-1H-indazol-4-yl)-9H-pyrido[4′,3′:4,5]pyrrolo[2,3-d]pyrimidin-4-yl)-6-methyl-1,4-oxazepan-6-ol] | 709 | 96.3 | 96 | 325 | 189 | 94.3 | 170 | 209
– | Cn1c2nc(OC[C@@]34CCCN3C[C@H](F)C4)nc(N3CCOC[C@@](C)(O)C3)c2c2ccnc(-c3ccc(F)c4sc(N)c(C#N)c34)c21 [Ex-16, 2-amino-7-fluoro-4-(2-(((2R,7aS)-2-fluorotetrahydro-1H-pyrrolizin-7a(5H)-yl)methoxy)-4-((S)-6-hydroxy-6-methyl-1,4-oxazepan-4-yl)-9-methyl-9H-pyrido[4′,3′:4,5]pyrrolo[2,3-d]pyrimidin-8-yl)benzo[b]thiophene-3-carbonitrile] | 8490 | 561 | 952 | 1770 | 765 | 315 | 5450 | 1320
694 | Cc1cc2[nH]ncc2c(-c2nccc3c4c(N5CCC[C@@](C)(O)C5)nc(OC[C@@]56CCCN5C[C@H](F)C6)nc4n(C)c23)c1C(F)(F)F (single isomer, unassigned) [Ex-5] | – | 80.7 | 61.2 | 127 | 101 | 94.3 | 188 | 96.8
– | C#Cc1c(C)cc2[nH]ncc2c1-c1nccc2c1sc1nc(OC[C@@]34CCCN3C[C@H](F)C4)nc(N3CCOC[C@@](C)(O)C3)c12 [Ex-33, (6S)-4-(8-(5-ethynyl-6-methyl-1H-indazol-4-yl)-2-(((2R,7aS)-2-fluorotetrahydro-1H-pyrrolizin-7a(5H)-yl)methoxy)pyrido[4′,3′:4,5]thieno[2,3-d]pyrimidin-4-yl)-6-methyl-1,4-oxazepan-6-ol] | 126 | 28.7 | 13.6 | 52.9 | 35.7 | 19.7 | 60.1 | 35.3
– | Cc1cc2[nH]ncc2c(-c2nccc3c2oc2nc(OC[C@@]45CCCN4C[C@H](F)C5)nc(N4CCOC[C@@](C)(O)C4)c23)c1C(F)(F)F [Ex-290, (6S)-4-(2-(((2R,7aS)-2-fluorotetrahydro-1H-pyrrolizin-7a(5H)-yl)methoxy)-8-(6-methyl-5-(trifluoromethyl)-1H-indazol-4-yl)pyrido[4′,3′:4,5]furo[2,3-d]pyrimidin-4-yl)-6-methyl-1,4-oxazepan-6-ol] | – | 365 | 611 | – | 1400 | 1030 | 2330 | 175
– | Cc1n[nH]c2cc(Cl)c(C(F)F)c(-c3nccc4c5c(N6CCOC[C@@](C)(O)C6)nc(OC[C@@]67CCCN6C[C@H](F)C7)nc5n(C)c34)c12 (single isomer, unassigned) [Ex-13] | – | 1660 | 3660 | – | 2750 | 4860 | 4300 | 1480
